Earlier results, collected in patent US20030003013A1, “Disinfectant composition and method for disinfecting and/or sterilising a dental unit” ([…].p.A., priority 2001, published 2003).

Tested on: bacteria and spores on a surface / water line of a dental unit

In the case of `O=CCCCC=O` [glutaraldehyde], the “contact time to reach the sporicidal level required to achieve sterility” value (glutaraldehyde) is listed as “five”, the “contact time for high-level disinfection” value (glutaraldehyde left in contact with a surface before flushing out) is listed as “twenty to thirty” and the “contact time to disinfect a surface” value (glutaraldehyde left in contact with the surface before flushing out) is listed as “approximately five”.
